Source: patent US20210284621A1 (priority 2018, published 2021)

What was measured:
LPS-induced PBMCs = test: Inflammatory cytokine release from LPS-induced PBMCs (Luminex); type: cell-based, human; conditions: fold change from LPS-treated PBMCs, compounds 10 μM (DEX 1 μg/ml) 2 h, then LPS 0.1 μg/ml 24 h, negative = reduced; for IL-12 (p70) / L-31: OOR = out of standard curve range
Protocol: Compounds of the invention were assayed for their effect on inflammatory cytokine release from lipopolysaccharides (LPS)-induced PBMCs, isolated from a human blood sample, the results of which are provided in Table 7 as fold change. Exemplary methods for quantifying secretion of inflammatory cytokines in PBMCs are known in the art, for example, as described in Hailer et al., Infection and Immunity. 68(2):752-759 (2000); and Merlini et al., Frontiers in Immunology. 7:614 (2016); each of which is incorporated herein by reference with respect to methods for evaluating cytokine release in PBMCs.
In brief, human blood samples from healthy volunteers were collected and PBMCs were isolated. PBMCs were cultured and each compound was assayed in triplicate at a final concentration of 10 μM for 2 hours. 1 μg/ml dexamethasone (DEX) served as a positive control. LPS was added at a final concentration of 0.1 μg/ml and further incubated for 24 hours. At the end of the incubation, the supernatants were collected and the levels of a panel of secreted cytokines were measured by a Human Magnetic Luminex® assay (R&D). The results in Table 7 are presented as a fold change from LPS-treated PBMCs. Reduced levels are expressed by negative values. OOR denotes values that are out of the standard curve range for the specific cytokine and thus, could not be accurately measured. Cytotoxicity was also determined. Compounds with cytotoxicity ≥50% was considered cytotoxic. Baseline cytotoxicity of untreated PBMCs was 17% and all compounds presented in Table 7 induced cytotoxicity below 25%.

CB1 receptor [1] = biological target: T1, CB1 receptor (Homo sapiens, UniProt P21554); test: cAMP Assay #2: Hit Hunter cAMP assay, Gi-coupled agonist activity, CB1; type: cell-based; design: host or cells: PathHunter cell lines
T1 sequence (P21554 whole entry): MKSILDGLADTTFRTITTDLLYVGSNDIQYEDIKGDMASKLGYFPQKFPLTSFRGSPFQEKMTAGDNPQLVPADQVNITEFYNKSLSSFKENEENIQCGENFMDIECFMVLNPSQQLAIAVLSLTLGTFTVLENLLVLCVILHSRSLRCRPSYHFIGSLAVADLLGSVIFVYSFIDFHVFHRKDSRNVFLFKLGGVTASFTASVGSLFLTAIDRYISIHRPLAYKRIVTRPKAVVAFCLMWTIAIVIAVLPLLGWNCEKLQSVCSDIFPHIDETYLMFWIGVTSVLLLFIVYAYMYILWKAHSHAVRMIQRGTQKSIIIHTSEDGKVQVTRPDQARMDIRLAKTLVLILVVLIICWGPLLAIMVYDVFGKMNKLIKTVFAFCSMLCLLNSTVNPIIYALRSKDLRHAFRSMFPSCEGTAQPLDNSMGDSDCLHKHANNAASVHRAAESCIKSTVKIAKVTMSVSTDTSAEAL
Protocol: (§1) Compounds of the invention were assayed in the Hit Hunter® cAMP assay to determine Gi-coupled agonist activity on the CB1 and CB2 receptors, the results of which are provided in Table 5.
(§2) The Hit Hunter® cAMP assay monitors the activation of a GPCR via Gi and […] secondary messenger signaling in a homogenous, non-imaging assay format using a technology developed by DiscoverX called Enzyme Fragment Complementation (EFC) with β-galactosidase (β-Gal) as the functional reporter. […] ED is fused to cAMP and in the assay competes with cAMP generated by cells for binding to a cAMP-specific antibody. Active β-Gal is formed by complementation of exogenous EA to any unbound ED cAMP. Active enzymes can then convert a chemiluminescent substrate, generating an output signal detectable on a standard microplate reader.
(§3) cAMP Hunter cell lines were expanded from freezer stocks according to standard procedures. Cells were seeded in a total volume of 20 μL into white walled, 384-well microplates and incubated at 37° C. for the appropriate time prior to testing. cAMP modulation was determined using the DiscoverX Hit Hunter cAMP XS+ assay. For Gi agonist activity determination, cells were incubated with sample in the presence of EC80 forskolin to induce response (20 μM and 25 μM in the CB1 and CB2 assays, respectively). Media was aspirated from cells and replaced with 15 μL 2:1 HBSS/10 mM HEPES:cAMP XS+Ab reagent.
(§4) Intermediate dilution of sample stocks was performed to generate 4× sample in assay buffer. 5 μL of 4× compound was added to cells and incubated at 37° C. or room temperature for 30 or 60 minutes. Final vehicle concentration was 1%. Assay signal was generated through incubation with 20 μL cAMP XS+ED/CL lysis cocktail for one hour at room temperature. Microplates were read following signal generation with a PerkinElmer Envision™ instrument for chemiluminescent signal detection. Compound activity was analyzed using CBIS data analysis suite (Chem Innovation, CA). For agonist assays, percentage activity was calculated using the following formula: % Activity=100%×(1−(mean RLU of test sample−mean RLU of Max control ligand)/(mean RLU of vehicle control−mean RLU of Max control ligand). Control ligand was the non-selective CB1/CB2 agonist CP55,940.

CB1 receptor [2] = biological target: T1, CB1 receptor; test: cell-based; design: host or cells: PathHunter cell lines
Protocol: (§5) The PathHunter® β-Arrestin assay monitors the activation of a GPCR in a homogenous, non-imaging assay format using a technology developed by DiscoverX called Enzyme Fragment Complementation (EFC) with β-galactosidase (3-Gal) as the functional reporter. […] EA is fused to β-Arrestin and PK is fused to the GPCR of interest.
(§6) PathHunter cell lines were expanded from freezer stocks according to standard procedures. Cells were seeded in a total volume of 20 μL into white walled, 384-well microplates and incubated at 37° C. for the appropriate time prior to testing. For agonist activity determination, cells were incubated with sample to induce response. Intermediate dilution of sample stocks was performed to generate 5× sample in assay buffer. 5 μL of 5× sample was added to cells and incubated at 37° C. or room temperature for 90 to 180 minutes. Vehicle concentration was 1%. Assay signal was generated through a single addition of 12.5 or 15 μL (50% v/v) of PathHunter Detection reagent cocktail, followed by a one hour incubation at room temperature. Microplates were read following signal generation with a PerkinElmer Envision™ instrument for chemiluminescent signal detection. Compound activity was analyzed using CBIS data analysis suite (ChemInnovation, CA). For agonist assays, percentage activity was calculated using the following formula: % Activity=100%×(mean RLU of test sample− mean RLU of vehicle control)/(mean MAX control ligand− mean RLU of vehicle control).

CB2 receptor [3] = biological target: T2, CB2 receptor (Homo sapiens, UniProt P34972); test: cAMP Assay #2: Hit Hunter cAMP assay, Gi-coupled agonist activity, CB2; type: cell-based; design: host or cells: cAMP Hunter cell lines; conditions: for CB2 fold selectivity: Hit Hunter cAMP, CB1 EC50 / CB2 EC50
T2 sequence (P34972 whole entry): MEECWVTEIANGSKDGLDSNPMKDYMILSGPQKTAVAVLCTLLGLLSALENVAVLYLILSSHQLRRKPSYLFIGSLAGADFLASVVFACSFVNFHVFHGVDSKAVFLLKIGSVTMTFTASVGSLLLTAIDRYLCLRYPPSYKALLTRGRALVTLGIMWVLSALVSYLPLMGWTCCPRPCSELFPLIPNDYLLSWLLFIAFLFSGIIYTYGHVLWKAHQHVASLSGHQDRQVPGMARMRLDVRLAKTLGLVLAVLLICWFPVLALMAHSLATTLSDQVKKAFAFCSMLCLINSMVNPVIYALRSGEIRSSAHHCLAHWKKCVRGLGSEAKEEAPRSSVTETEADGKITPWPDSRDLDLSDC
Protocol: as §1, §2, §3, §4

CB2 receptor [4] = biological target: T2, CB2 receptor; test: cell-based; design: host or cells: cAMP Hunter cell lines
Protocol: as §5, §6

CB1 receptor [5] = biological target: T1, CB1 receptor; test: CB1 competitive radioligand binding assay ([3H] SR141716A); design: expressed in transfected cells; host or cells: Chem-1 cells
Method in brief: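 Chem-1 cells expressing human recombinant CB1 incubated 90 min at 37° C with 2.0 nM [3H]SR141716A and compound at 0.5 μM (1% DMSO) in HEPES pH 7.4 buffer with MgCl2, CaCl2, 0.2% BSA. Read-out is % inhibition of radioligand binding.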

CB2 receptor [6] = biological target: T2, CB2 receptor; test: CB2 competitive radioligand binding assay ([3H] WIN-55,212-2); design: expressed in transfected cells; host or cells: CHO-K1 cells; conditions: for Fold Selectivity (CB1/CB2): Table 3, ratio of Ki CB1/CB2
Method in brief: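 Single-concentration displacement: 2.4 nM [3H]WIN-55,212-2 competed with 0.05 μM compound (1% DMSO) for 90 min at 37 °C on human CB2 expressed in CHO-K1 cells (HEPES 20 mM, pH 7.0, 0.5% BSA). Result given as % inhibition of bound radioligand.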

[7] = PathHunter agonist mode, read-out: CB2 Activity (β-Arrestin)
[8] = PathHunter agonist mode, read-out: CB1 Activity (β-Arrestin)

| Structure (SMILES) | IL17A (LPS-induced PBMCs) [fold change] | IL-1β (LPS-induced PBMCs) [fold change] | IL-4 (LPS-induced PBMCs) [fold change] | IL-6 (LPS-induced PBMCs) [fold change] | IL-8 (LPS-induced PBMCs) [fold change] | IL-10 (LPS-induced PBMCs) [fold change] | MCP-1 (LPS-induced PBMCs) [fold change] | TNFα (LPS-induced PBMCs) [fold change] | EC50 (CB1 receptor [1]) [µM] | EC50 (CB1 receptor [2]) [µM] | EC50 (CB2 receptor [3]) [µM] | CB2 fold selectivity (CB2 receptor [3]) | EC50 (CB2 receptor [4]; [7]) [µM] | Ki (CB1 receptor [5]) [µM] | Ki (CB2 receptor [6]) [µM] | Fold Selectivity (CB1/CB2) (CB2 receptor [6]) | IL-12 (p70) (LPS-induced PBMCs) [fold change] | L-31 (LPS-induced PBMCs) [fold change] | EC50 (CB1 receptor [2]; [8]) [µM] | EC50 (CB2 receptor [4]) [µM] |
| --- | --- | --- | --- | --- | --- | --- | --- | --- | --- | --- | --- | --- | --- | --- | --- | --- | --- | --- | --- | --- |
| CCCCCCC(C)(C)c1cc(O)c2c(c1)OC(C)(C)[C@@H]1CC=C(C(=O)NC3CC(F)(F)C3)C[C@@H]21 [Compound 89, (6aR,10aR)-N-(3,3-difluorocyclobutyl)-1-hydroxy-6,6-dimethyl-3-(2-methyloctan-2-yl)-6a,7,10,10a-tetrahydro-6H-benzo[c]chromene-9-carboxamide] | −14.0 | −4.8 | −3.8 | −237.0 | −4.2 | −960.1 | −143.8 | −35.6 | 0.0436 | 0.033 | 0.0013 | 34.6 | 0.0019 | 0.062 | 0.0043 | 14.4 |  |  |  |  |
| CCCCCCC(C)(C)c1cc(O)c2c(c1)OC(C)(C)[C@@H]1CC=C(C(=O)NC3(C(F)(F)F)CC3)C[C@@H]21 [Compound 99, (6aR,10aR)-1-hydroxy-N-(1-trifluoromethyl-cyclopropyl)-6,6-dimethyl-3-(2-methyloctan-2-yl)-6a,7,10,10a-tetrahydro-6H-benzo[c]chromene-9-carboxamide] | 1.2 | 1.2 | −1.4 | −2.6 | −1.0 | −7.0 | −3.3 | −1.4 | 0.0191 | 0.0325 | 0.0013 | 14.9 | 0.0012 | 0.0089 | 0.002 | 4.5 | −1.6 | −1.1 |  |  |
| CCCCC(C)(C)c1cc(O)c2c(c1)OC(C)(C)[C@@H]1CC=C(C(=O)O)C[C@@H]21 [Compound 109] | 1.2 | −3.3 | −1.5 | −1.4 | −1.0 | −1.3 | −5.0 | −1.3 | 1.22 |  | 0.148 | 8.3 | 0.0581 | > 3 | > 3 |  | −1.6 | −1.5 | > 3 |  |
| CCCC(C)(C)c1cc(O)c2c(c1)OC(C)(C)[C@@H]1CC=C(C(=O)O)C[C@@H]21 [Compound 110, (6aR,10aR)-1-hydroxy-6,6-dimethyl-3-(2-methylpentan-2-yl)-6a,7,10,10a-tetrahydro-6H-benzo[c]chromene-9-carboxylic acid] | 1.3 | −1.5 | −1.3 | −1.2 | −1.0 | −1.0 | −3.0 | −1.0 | > 3 |  | 0.211 | >14 |  | > 3 | > 3 |  | −1.1 | −1.3 | > 3 | 0.0374 |
